Source: patent US9206173B2, “Heterocyclic compounds for the treatment of stress-related conditions” (OTSUKA PHARMACEUTICAL CO., LTD., priority 2009, dated 2015)
Where a name gives a salt, the structure may show the parent alone.

What was measured:
[1] = molecular target: T1, human GPR10 (Homo sapiens (Human), UniProt P49683); assay: Inhibitory activity on binding of [3H]-PrRP to GPR10 (HEK 293 cell membrane fraction); settings: [3H]-PrRP 1 nM, human GPR10-expressing HEK 293 cell membrane fraction; Ki from IC50 by Cheng-Prussoff formula
T1 sequence (P49683 whole entry): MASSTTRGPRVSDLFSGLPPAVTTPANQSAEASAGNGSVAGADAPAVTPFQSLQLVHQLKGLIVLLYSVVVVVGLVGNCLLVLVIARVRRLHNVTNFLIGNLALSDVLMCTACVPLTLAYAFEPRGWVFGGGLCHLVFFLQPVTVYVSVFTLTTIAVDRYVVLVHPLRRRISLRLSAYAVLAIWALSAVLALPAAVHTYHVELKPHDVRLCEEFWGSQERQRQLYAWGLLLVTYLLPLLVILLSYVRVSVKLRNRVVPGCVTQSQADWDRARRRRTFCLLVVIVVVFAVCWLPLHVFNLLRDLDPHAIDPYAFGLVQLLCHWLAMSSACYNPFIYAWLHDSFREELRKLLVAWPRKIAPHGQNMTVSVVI
Method in brief: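 Competition with [3H]-PrRP (1 nM final) for membranes from human GPR10-expressing HEK293 cells, 90 min at room temperature in HEPES/EDTA buffer pH 7.4; filtration and scintillation counting.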

[2] = molecular target: T1, human GPR10; assay: Antagonistic activity on PrRP-induced intracellular calcium mobilization in human GPR10-expressing HEK293 cells; format: cell-based; settings: PrRP 1 nM-induced intracellular calcium mobilization, Fluo-8

SMILES	melting point [°C]	Ki [1] [nM]	IC50 [2] [nM]
CC[C@@H](Nc1nc2c(c(=O)n1OC)CN(C(=O)c1ccc(Cl)cc1)CC2)c1ccc(Cl)cc1.Cl	127 to 129.5		
CN(C)n1c(NCc2ccc(C(F)(F)F)c(F)c2)nc2c(c1=O)CN(C(=O)c1ccc(Cl)cc1)CC2.Cl	122 to 124		
C[C@H](Nc1nc2c(c(=O)n1N(C)C)CN(C(=O)c1ccc(Cl)cc1)CC2)c1ccc(C(F)(F)F)cc1.Cl [Example 6, 6-(4-chlorobenzoyl)-3-dimethylamino-2-(S)-{1-[4-(trifluoromethyl)phenyl]ethylamino}-5,6,7,8-tetrahydropyrido[4,3-d]pyrimidin-4-(3H)-one hydrochloride]	116 to 118	17	187
C[C@H](Nc1nc2c(c(=O)n1N(C)C)CN(C(=O)c1ccc(Cl)cc1)CC2)c1ccc(Cl)cc1.Cl [Example 8, 6-(4-chlorobenzoyl)-2-(S)-[1-(4-chlorophenyl)ethylamino]-3-dimethylamino-5,6,7,8-tetrahydropyrido[4,3-d]pyrimidin-4-(3H)-one hydrochloride]	121 to 123	25	253
CCC(Nc1nc2c(c(=O)n1OC)CN(C(=O)c1ccc(Cl)cc1)CC2)c1ccc(Cl)cc1.Cl (stereo not shown) [Example 2421, 6-(4-chlorobenzoyl)-2-[1-(4-chlorophenyl)propylamino]-3-methoxy-5,6,7,8-tetrahydro-3H-pyrido[4,3-d]pyrimidin-4-one hydrochloride]	118.1 to 123.7	44	1570
C[C@H](Nc1nc2c(c(=O)n1N(C)C)CN(C(=O)c1c(F)cc(F)cc1F)CC2)c1ccc(C(F)(F)F)cc1 [Example 2484, 3-dimethylamino-6-(2,4,6-trifluorobenzoyl)-2-[(S)-1-(4-trifluoromethylphenyl)ethylamino]-5,6,7,8-tetrahydro-3H-pyrido[4,3-d]pyrimidin-4-one hydrochloride]		6	216
